Where two headings read alike, the source gives them in different places.
Assays:
[1] = test system: MOLT-4 cancer cell line; assay: Cell proliferation assay, MOLT-4 cancer cell line (ATPlite); format: cell-based; details: Homo sapiens;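 further: luminescence read-out, percent growth versus compound-free DMSO wells as maximum growth, start-of-incubation signal separating growth from cell death, IC50 from logistic curve fit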
Protocol: 5 μL of compound solution was added and the plates were incubated for an additional 72 hours after which 25 μL of ATPlite 1Step™ (PerkinElmer, Groningen, The Netherlands) solution was added to each well. Luminescence was recorded on an Envision multimode reader. The cell signal at the start of incubation was recorded separately in order to distinguish between cell population growth and cell death. In addition, maximum growth was determined by incubation of a duplicate without compound in the presence of 0.4% DMSO. Percentage growth was used as the main y-axis signal. IC50s were fitted by non-linear regression using IDBS XLfit™5 using a 4-parameter logistic curve, yielding a maximum signal, minimum signal, hill-parameter and IC50.

[2] = molecular target: T1, Aurora A (Homo sapiens, UniProt O14965); assay: Biochemical Aurora A kinase assay (LANCE Ultra TR-FRET); details: for AurA Selectivity: IC50 AurA/IC50 TTK (biochemical assays); for IC50: full-length Aurora A, 2 μM ATP
T1 construct: full-length Aurora A enzyme (Carna Biosciences, cat. no. 05-101); purchased Carna Biosciences 05-101
T1 sequence (O14965 1-403): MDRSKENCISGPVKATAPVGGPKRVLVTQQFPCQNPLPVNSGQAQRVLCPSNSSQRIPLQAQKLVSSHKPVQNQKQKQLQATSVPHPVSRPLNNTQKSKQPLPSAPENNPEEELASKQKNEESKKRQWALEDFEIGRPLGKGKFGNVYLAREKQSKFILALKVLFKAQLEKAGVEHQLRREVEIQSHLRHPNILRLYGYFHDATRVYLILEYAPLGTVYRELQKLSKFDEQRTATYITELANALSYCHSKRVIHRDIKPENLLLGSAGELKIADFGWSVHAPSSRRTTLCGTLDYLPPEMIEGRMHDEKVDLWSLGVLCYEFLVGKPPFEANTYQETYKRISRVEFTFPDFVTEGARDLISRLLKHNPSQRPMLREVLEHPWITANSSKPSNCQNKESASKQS
Protocol: To determine the inhibitory activity of the compounds on Aurora A, the LANCE® Ultra TR-FRET assay (Perkin Elmer) was used. […] After 2 hours, the reaction was stopped by the addition of 5 μl 100 mM EDTA. […] Time-resolved fluorescence was measured on an Envision multilabel reader (Perkin Elmer, Waltham, Mass., USA). IC50 were calculated using XLfit™5 software (ID Business Solutions, Ltd., Surrey, U.K.).

[3] = molecular target: T2, Aurora C (Homo sapiens, UniProt Q9UQB9); assay: Biochemical Aurora C kinase assay (LANCE Ultra TR-FRET); details: for AurC Selectivity: IC50 AurC/IC50 TTK (biochemical assays); for IC50: full-length Aurora C, 5 μM ATP
T2 construct: full-length Aurora C enzyme (Carna Biosciences, cat. no. 05-103); purchased Carna Biosciences 05-103
T2 sequence (Q9UQB9 1-309): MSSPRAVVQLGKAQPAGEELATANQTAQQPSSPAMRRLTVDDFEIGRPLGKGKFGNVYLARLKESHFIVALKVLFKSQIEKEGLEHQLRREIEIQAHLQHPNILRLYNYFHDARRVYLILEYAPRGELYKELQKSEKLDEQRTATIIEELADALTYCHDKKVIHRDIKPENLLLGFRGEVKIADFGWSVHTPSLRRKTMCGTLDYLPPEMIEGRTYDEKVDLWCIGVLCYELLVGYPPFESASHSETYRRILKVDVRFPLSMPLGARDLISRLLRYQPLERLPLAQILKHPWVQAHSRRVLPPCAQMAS
Protocol: To determine the inhibitory activity of the compounds on Aurora C, the LANCE® Ultra TR-FRET assay (Perkin Elmer) was used. […] After pre-incubation of 1 hour in the dark at room temperature, ULightTM-labeled PLK([MUT]) substrate peptide (Perkin Elmer, cat. no. TRF-0110) and ATP were added, to start the reaction. […] After 3 hours, the reaction was stopped by the addition of 5 μl 100 mM EDTA. […] Time-resolved fluorescence was measured on an Envision multilabel reader (Perkin Elmer, Waltham, Mass., USA). IC50 were calculated using XLfitTM5 software (ID Business Solutions, Ltd., Surrey, U.K.).

[4] = molecular target: Polo-like kinase 1 (PLK1) (Homo sapiens, UniProt P53350); assay: Biochemical Polo-like kinase 1 kinase assay (LANCE Ultra TR-FRET); details: for PLK1 Selectivity: IC50 PLK1/IC50 TTK (biochemical assays)
Protocol: To determine the inhibitory activity of the compounds on Polo-like kinase 1 (PLK1), the LANCE® Ultra TR-FRET assay (Perkin Elmer) was used. […] After 4 hours, the reaction was stopped by the addition of 5 μl 100 mM EDTA. […] Time-resolved fluorescence was measured on an Envision multilabel reader (Perkin Elmer, Waltham, Mass. USA). IC50 were calculated using XLfit™5 software (ID Business Solutions, Ltd., Surrey, U.K.).

[5] = MOLT-4, 72 hours incubation, ATPlite 1Step, read-out: IC50 MOLT-4 cell proliferation
[6] = MOLT-4, worded 'TTK cellular assay', read-out: IC50 in the TTK cellular assay

Polo-like kinase 1 (PLK1), sequence (P53350 whole entry): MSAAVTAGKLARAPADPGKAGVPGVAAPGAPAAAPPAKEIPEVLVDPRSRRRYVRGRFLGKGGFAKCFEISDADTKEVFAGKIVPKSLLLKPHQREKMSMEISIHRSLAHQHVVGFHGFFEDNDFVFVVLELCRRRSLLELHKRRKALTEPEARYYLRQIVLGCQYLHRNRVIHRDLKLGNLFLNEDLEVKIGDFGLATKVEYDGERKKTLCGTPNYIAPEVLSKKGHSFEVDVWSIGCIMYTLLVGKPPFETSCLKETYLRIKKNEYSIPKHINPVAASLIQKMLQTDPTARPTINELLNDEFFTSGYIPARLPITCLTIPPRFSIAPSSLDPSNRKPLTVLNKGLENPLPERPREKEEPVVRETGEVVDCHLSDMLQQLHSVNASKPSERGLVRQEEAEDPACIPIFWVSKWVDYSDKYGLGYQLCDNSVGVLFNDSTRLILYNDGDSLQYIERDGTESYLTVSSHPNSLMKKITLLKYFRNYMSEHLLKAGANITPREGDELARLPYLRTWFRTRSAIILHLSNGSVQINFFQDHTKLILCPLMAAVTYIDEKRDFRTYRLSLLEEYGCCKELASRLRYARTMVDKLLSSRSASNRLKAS

Row | Structure (SMILES) | IC50 [1, 5] [nM] | AurA Selectivity [2] | IC50 [2] [nM] | AurC Selectivity [3] | IC50 [3] [nM] | IC50 [4] [nM] | PLK1 Selectivity [4] | IC50 ([1]; MOLT-4, read-out: IC50 in the TTK cellular assay) [nM] | IC50 [1, 6] [nM]
1 | CCc1n[nH]c(CC)c1NC(=O)c1ccn2c1CCc1cnc(Nc3ccc(N4CCN(C)CC4)cc3OC(F)F)nc1-2 [Example 33, N-(3,5-diethyl-1H-pyrazol-4-yl)-2-[2-(difluoromethoxy)-4-(4-methylpiperazin-1-yl)anilino]-5,6-dihydropyrimido[4,5-e]indolizine-7-carboxamide] | < 50 | >500 | ≥ 100 | >500 | ≥ 100 | ≥ 250 | >500 |  | 
2 | CCc1cccc(CC)c1NC(=O)c1ccn2c1CCc1cnc(Nc3ccc(N(C)CCCN(C)C)cc3OC)nc1-2 [Example 134, N-(2,6-diethylphenyl)-2-[4-[3-(dimethylamino)propyl-methyl-amino]-2-methoxy-anilino]-5,6-dihydropyrimido[4,5-e]indolizine-7-carboxamide] | < 50 |  |  |  |  |  |  |  | 
3 | COCCOCCOCCn1nc(C)c(NC(=O)c2ccn3c2CCc2cnc(Nc4ccc(N(C)CCCN(C)C)cc4OC)nc2-3)c1C [Example 135, 2-[4-[3-(Dimethylamino)propyl-methyl-amino]-2-methoxy-anilino]-N-[1-[2-[2-(-2-methoxyethoxy)ethoxy]ethyl]-3,5-dimethyl-pyrazol-4-yl]-5,6-dihydropyrimido[4,5-e]indolizine-7-carboxamide] | < 50 |  |  |  |  |  |  |  | 
4 | CCc1cccc(CC)c1NC(=O)c1ccn2c1CCc1cnc(Nc3ccc(OCCOC)cc3OC)nc1-2 [Example 136, N-(2,6-diethylphenyl)-2-[2-methoxy-4-(2-methoxyethoxy)anilino]-5,6-dihydropyrimido[4,5-e]indolizine-7-carboxamide] | 50 to 150 |  |  |  |  |  |  |  | 
5 | COCCOCCOCCn1nc(C)c(NC(=O)c2ccn3c2CCc2cnc(Nc4ccc(OCCOC)cc4OC)nc2-3)c1C [Example 137, N-[1-[2-[2-(2-methoxyethoxy)ethoxy]ethyl]-3,5-dimethyl-pyrazol-4-yl]-2-[2-methoxy-4-(2-methoxyethoxy)anilino]-5,6-dihydropyrimido[4,5-e]indolizine-7-carboxamide] | < 50 |  |  |  |  |  |  |  | 
6 | COCCOCCOCCn1nc(C)c(NC(=O)c2ccn3c2CCc2cnc(Nc4ccc(N5CCN(C)CC5)cc4OC)nc2-3)c1C [Example 138, N-[1-[2-[2-(2-methoxyethoxy)ethoxy]ethyl]-3,5-dimethyl-pyrrazol-4-yl]-2-[2-methoxy-4-(4-methylpiperazin-1-yl)anilino]-5,6-dihydropyrimido[4,5-e]indolizine-7-carboxamide] | < 50 | >500 | ≥ 100 | >500 | ≥ 100 | ≥ 250 | >500 |  | 
7 | COc1cc(N2CCN(C)CC2)ccc1Nc1ncc2c(n1)-n1ccc(C(=O)Nc3c(C)nn(CC4CCO4)c3C)c1CC2 (stereo not shown) [Example 140, N-[3,5-dimethyl-1-(oxetan-2-ylmethyl)pyrazol-4-yl]-2-[2-methoxy-4-(4-methylpiperazin-1-yl)anilino]-5,6-dihydropyrimido[4,5-e]indolizine-7-carboxamide] | 50 to 150 |  |  |  |  |  |  |  | 
8 | CCc1nn(CCOCCOC)c(CC)c1NC(=O)c1ccn2c1CCc1cnc(Nc3ccc(N4CCN(C)CC4)cc3OC)nc1-2 [Example 141, N-[3,5-diethyl-1-[2-(2-methoxyethoxy)ethyl]pyrazol-4-yl]-2-[2-methoxy-4-(4-methylpiperazin-1-yl)anilino]-5,6-dihydropyrimido[4,5-e]indolizine-7-carboxamide] | < 50 | >200 | ≥ 100 | >500 | ≥ 100 | ≥ 250 | >500 |  | 
9 | CCc1nn(C2COC2)c(CC)c1NC(=O)c1ccn2c1CCc1cnc(Nc3ccc(N4CCN(C)CC4)cc3OC)nc1-2 [Example 142, N-[3,5-diethyl-1-(oxetan-3-yl)pyrazol-4-yl]-2-[2-methoxy-4-(4-methylpiperazin-1-yl)anilino]-5,6-dihydropyrimido[4,5-e]indolizine-7-carboxamide] | 50 to 150 |  |  |  |  |  |  |  | 
10 | Cc1cccc(C)c1NC(=O)c1ccn2c1CCc1cnc(Nc3ccc(N4CCN(C)CC4)cc3OC(F)F)nc1-2 [Example 144, N-(2,6-dimethyl-phenyl)-2-[2-(difluoromethoxy)-4-(4-methylpiperazin-1-yl)anilino]-5,6-dihydropyrimido[4,5-e]indolizine-7-carboxamide] | < 50 |  |  |  |  |  |  |  | 
11 | COc1cc(N2CCN(C(=O)NC(C)C)CC2)ccc1Nc1ncc2c(n1)-n1ccc(C(=O)Nc3c(C)cccc3C)c1CC2 [Example 145, N-(2,6-dimethylphenyl)-2-[4-[4-(isopropylcarbamoyl)piperazin-1-yl]-2-methoxy-anilino]-5,6-dihydropyrimido[4,5-e]indolizine-7-carboxamide] | < 50 |  |  |  |  |  |  |  | 
12 | CCOCCOCCn1nc(C)c(NC(=O)c2ccn3c2CCc2cnc(Nc4ccc(N5CCN(C)CC5)cc4OC)nc2-3)c1C [Example 148, N-[1-[2-(2-ethoxyethoxy)ethyl]-3,5-dimethyl-pyrazol-4-yl]-2-[2-methoxy-4-(4-methylpiperazin-1-yl)anilino]-5,6-dihydropyrimido[4,5-e]indolizine-7-carboxamide] |  |  | ≥ 100 |  | ≥ 100 | ≥ 250 |  | < 50 | 
13 | COCCOCCn1nc(C)c(NC(=O)c2ccn3c2CCc2cnc(Nc4ccc(N5CCN(C)CC5)cc4OC)nc2-3)c1C [Example 149, N-[1-[2-(2-methoxyethoxy)ethyl]-3,5-dimethyl-pyrazol-4-yl]-2-[2-methoxy-4-(4-methylpiperazin-1-yl)anilino]-b,6-dihydropyrimido[4,5-e]indolizine-7-carboxamide] |  | >200 | ≥ 100 | >500 | ≥ 100 | ≥ 250 | >500 |  | < 50
14 | CCOCCOCCn1nc(CC)c(NC(=O)c2ccn3c2CCc2cnc(Nc4ccc(N5CCN(C)CC5)cc4OC)nc2-3)c1CC [Example 150, N-[1-[2-(2-ethoxyethoxy)ethyl]-3,5-diethyl-pyrazol-4-yl]-2-[2-methoxy-4-(4-methylpiperazin-1-yl)anilino]-5,6-dihydropyrimido[4,5-e]indolizine-7-carboxamide] |  | >200 | ≥ 100 | >500 | ≥ 100 | ≥ 250 | >500 |  | < 50
15 | CCOCCOCCn1nc(CC)c(NC(=O)c2ccn3c2CCc2cnc(Nc4ccc(N5CCNCC5)cc4OC)nc2-3)c1CC [Example 151, N-[1-[2-(2-ethoxyethoxy)ethyl]-3,5-diethyl-pyrazol-4-yl]-2-(2-methoxy-4-piperazin-1-yl-anilino)-5,6-dihydropyrimido[4,5-e]indolizine-7-carboxamide] |  | >100 | ≥ 100 | >500 | ≥ 100 | ≥ 250 | >500 |  | < 50
16 | COCCn1nc(C)c(NC(=O)c2ccn3c2CCc2cnc(Nc4ccc(N5CCN(C(=O)C6CN(C)C6)CC5)cc4OC)nc2-3)c1C [Example 155, N-[1-(2-methoxyethyl)-3,5-dimethyl-pyrazol-4-yl]-2-[2-methoxy-4-[4-(1-methylazetidine-3-carbonyl)piperazin-1-yl]anilino]-5,6-dihydropyrimido[4,5-e]indolizine-7-carboxamide] |  | >200 | ≥ 100 | >500 | ≥ 100 | ≥ 250 | >500 |  | < 50

From USRE50082E1, “(5,6-dihydro)pyrimido[4,5-e]indolizines” (NETHERLANDS TRANSLATIONAL RESEARCH CENTER B.V., priority 2014, dated 2024)
